One may read the IC50 as the concentration that gives 50% inhibition.

SMILES strings stand for the structures. Like-named read-outs stand apart in the source and are kept apart here.

Our source for the IC50 values is patent US20100113460A1, “Organic Compounds” (Givaudan SA, priority 2007, published 2010).

For one series, the target named is T1, CYP2A6 (Homo sapiens, UniProt P11509).
T1 construct: purchased BD Biosciences Gentest, USA
T1 sequence (P11509 1-494): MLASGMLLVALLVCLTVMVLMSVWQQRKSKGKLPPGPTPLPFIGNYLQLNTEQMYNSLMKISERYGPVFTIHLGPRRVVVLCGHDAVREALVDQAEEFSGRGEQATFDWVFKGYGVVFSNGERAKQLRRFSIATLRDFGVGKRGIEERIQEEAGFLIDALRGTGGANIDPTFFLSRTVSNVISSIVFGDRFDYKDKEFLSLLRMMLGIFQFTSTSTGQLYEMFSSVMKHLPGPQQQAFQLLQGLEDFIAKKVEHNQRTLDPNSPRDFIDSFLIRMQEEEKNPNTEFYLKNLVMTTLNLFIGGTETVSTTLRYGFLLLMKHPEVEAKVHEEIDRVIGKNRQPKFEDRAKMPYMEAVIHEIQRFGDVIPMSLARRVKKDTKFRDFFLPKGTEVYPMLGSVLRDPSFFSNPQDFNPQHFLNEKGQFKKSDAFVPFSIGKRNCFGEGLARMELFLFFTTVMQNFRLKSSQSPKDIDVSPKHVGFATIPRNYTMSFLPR
The series can be described thus: CYP2A6 inhibition, coumarin to Umbelliferone fluorescence assay in microsomes. The series is classed as biochemical. The conditions noted are these: substrate coumarin 0.003 mM, 60 min at 37° C.; read-out: CYP2A6 inhibitor activity IC50. Here is the method:
Test compounds that inhibit the activity of CYP2A6 are identified by using the same principle as described in Example 28, first paragraph.
A test compound (details see list below) was incubated with CYP2A6 in the presence of a cytochrome P450 reductase. CYP2A6 and P450 reductase were employed in form of microsomes (BD Biosciences Gentest, USA). Microsomes were used which contained 2 pmoles CYP2A6 and an amount of NADPH-P450 reductase corresponding to cytochrome c reductase activity of 87 nmole/(min×mg protein). […] The concentration of the standard substrate coumarin was 0.003 mM.
The samples were analysed spectrofluorometrically according to the procedure described in Example 28.

The next series has as its target T2, CYP2A13 (Homo sapiens, UniProt Q16696).
T2 sequence (Q16696 1-494): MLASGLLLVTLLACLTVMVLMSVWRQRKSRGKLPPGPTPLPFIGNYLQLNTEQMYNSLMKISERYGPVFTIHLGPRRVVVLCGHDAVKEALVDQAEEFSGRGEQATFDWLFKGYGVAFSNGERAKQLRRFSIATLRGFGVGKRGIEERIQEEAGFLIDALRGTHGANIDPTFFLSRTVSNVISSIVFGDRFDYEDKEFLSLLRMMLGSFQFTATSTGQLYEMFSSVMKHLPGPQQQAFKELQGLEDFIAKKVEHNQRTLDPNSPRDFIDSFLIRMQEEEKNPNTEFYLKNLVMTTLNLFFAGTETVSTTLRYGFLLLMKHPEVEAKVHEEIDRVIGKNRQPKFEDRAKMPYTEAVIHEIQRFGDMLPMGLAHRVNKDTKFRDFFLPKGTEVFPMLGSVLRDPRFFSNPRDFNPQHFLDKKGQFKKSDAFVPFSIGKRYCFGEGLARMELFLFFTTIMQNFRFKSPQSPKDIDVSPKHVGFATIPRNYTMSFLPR
Put plainly: CYP2A13 inhibition, coumarin to 7-hydroxy-coumarin (Umbelliferone) fluorescence assay in microsomes.

[1] abbreviates: read-out: CYP2A13 inhibitor activity IC50, substrate coumarin 0.006 mM, 60 min at 37° C.

Method for CYP2A13: Compounds that inhibit the activity of CYP2A13 are identified by using a standard reaction established for the enzyme. A known substrate is coumarin, and the product of the enzymatic reaction is 7-hydroxy-coumarin (Umbelliferone) which is strongly fluorescent. When a compound is added to the standard reaction and the formation of Umbelliferone is decreased, the compound is identified as an inhibitor, which can also be a competitive substrate of the enzyme. The compound is used at various concentrations and the concentration-dependent decrease in Umbelliferone formation allows to determine the concentration where the activity of the enzyme is reduced to the 50% level (IC50 value).
A test compound (details see Table 1) was incubated with CYP2A13 in the presence of a cytochrome P450 reductase. CYP2A13 and P450 reductase were employed in form of microsomes. […] Preferably, the two enzymes are coexpressed in the same insect cells and microsomes prepared which contain both enzymes. […] An MOI of 4 for recombinant CYP2A13 baculovirus combined with an MOI of 3.5 for recombinant P450 reductase baculovirus routinely produced microsomes with considerable activity.
Microsomes were used which contained 7 pmoles CYP2A13. […] The concentration of the standard substrate coumarin was 0.006 mM. […] The mixture was incubated for 10 min at 37° C. prior to the initiation of the enzymatic reaction by the addition of 0.005 ml of a solution of 50 mM NADPH in water. The final total volume was 0.2 ml, which is suitable for microtiter plate measurements. The samples were incubated for 60 min at 37° C. After 60 min, the enzymatic reaction was stopped by the addition of 0.02 ml cold 50% trichloroacetic acid (TCA) and incubated at 4° C. for 15 min. 0.005 ml of a solution of 50 mM NADPH in water was added to the control reaction which corresponds to the reaction without test compound and without NADPH, and as a consequence, no Umbelliferone was formed. Denatured proteins and other insoluble parts were separated by centrifugation (10 min, 560×g, room-temperature).
The samples were analysed spectrofluorometrically which allows to detect the formation of Umbelliferone as the enzymatic product of coumarin at an excitation wavelength of 340 nm and an emission wavelength of 480 nm.

In the case of `CC/C=C\CC1=C(C)CCC1=O` [Compound ID 10, (Z)-3-methyl-2-(pent-2-enyl)cyclopent-2-enone], the IC50 turned out to be 54 µM on CYP2A6 and 1.6 µM on CYP2A13.

Turning to `CCCCCn1ccnc1` [Compound ID 28, 1-pentyl-1H-imidazole], the IC50 on CYP2A6 is 2 µM; against CYP2A13, 4.2 µM.

On CYP2A13, `CC/C=C\CC1CCCC(=O)O1` (stereo not shown) [Compound ID 22, (Z)-6-(pent-2-enyl)tetrahydro-2H-pyran-2-one] displayed a 50% inhibitory concentration (IC50) of 3.3 µM.

Regarding `CCCCCCC1=C(C)CCC1=O` [Compound ID 3, 2-hexyl-3-methylcyclopent-2-enone], the IC50 was 13 µM on CYP2A6 and 0.4 µM on CYP2A13.

In turn, `CC/C=C/CC1=C(CC(=O)OC)CCC1=O` [Compound ID 52] returned an IC50 at CYP2A13 of 8.3 µM.

In the case of `c1cnc2c(n1)CCCCCCCCCC2` [Compound ID 42, 5,6,7,8,9,10,11,12,13,14-decahydrocyclododeca[b]pyrazine], the midpoint of inhibition against CYP2A13, the IC50, lay at 6.1 µM.

`CCCCC1CCC(=O)O1` (stereo not shown) [Compound ID 63, 5-butyldihydrofuran-2(3H)-one] displayed an IC50 on CYP2A13 of 15.1 µM.

On CYP2A13, `c1nc2c(o1)CCCCCC2` [Compound ID 60, 4,5,6,7,8,9-hexahydrocycloocta[d]oxazole] showed an IC50 of 11.4 µM.

At CYP2A13, `CCCCCCC1(C)CCC(=O)O1` (stereo not shown) [Compound ID 31, 5-hexyl-5-methyldihydrofuran-2(3H)-one] displayed an IC50 of 4.6 µM.

At CYP2A13, `CCCCCCC1CCC(=O)O1` (stereo not shown) [Compound ID 47, 5-hexyldihydrofuran-2(3H)-one] registered an IC50 of 7.2 µM.

For `CC/C=C/CCn1ccnc1` [Compound ID 46, (E)-1-(hex-3-enyl)-1H-imidazole], on CYP2A13 (setting [1]), the IC50 is 6.8 µM.

On to `CCCCCC1C(=O)CCC1CC(=O)OC` (stereo not shown) [Compound ID 37, methyl 2-(3-oxo-2-pentylcyclopentyl)acetate], for which the half-inhibitory concentration (IC50) against CYP2A13 turned out to be 5.2 µM.

Regarding `c1nc2c([nH]1)CCCCCCCCCC2` [Compound ID 59, 4,5,6,7,8,9,10,11,12,13-decahydro-1H-cyclododeca[d]imidazole], the midpoint of inhibition against CYP2A13, the IC50, lay at 11.5 µM.

The molecule `CCCCCC1OC(=O)CC1C` (stereo not shown) [Compound ID 12, 4-methyl-5-pentyldihydrofuran-2(3H)-one] yielded an IC50 on CYP2A13 of 1.7 µM.

Molecule `CCCCCCN1C(=O)CCC1C` (stereo not shown) [Compound ID 48] displayed an IC50 at CYP2A13 of 7.4 µM.

Consider `CCCCC1OC(=O)CC1C` (stereo not shown) [Compound ID 11, 4-methyl-5-butyldihydrofuran-2(3H)-one], for which the IC50 on CYP2A6 came out at 56 µM; against CYP2A13 it was 1.6 µM.

On CYP2A13, `c1cn2c(n1)CCCCCCCCCCC2` [Compound ID 64, 6,7,8,9,10,11,12,13,14,15-decahydro-5H-imidazo[1,2-a][1]azacyclotridecine] came in with an IC50 of 14.6 µM.

For `CC/C=C\Cn1ccnc1` [Compound ID 54, (Z)-1-(pent-2-enyl)-1H-imidazole], the IC50 came out at 7 µM at CYP2A6 and 9.4 µM against CYP2A13.

Consider `CC(C)CCn1ccnc1` [Compound ID 39, 1-isopentyl-1H-imidazole], for which the IC50 at CYP2A13 (setting [1]) was 5.6 µM.

Molecule `CCCCCN1C(=O)CC[C@H]1C(=O)OCC` [Compound ID 19] gave an IC50 against CYP2A13 of 3 µM.
